# Test results taken from ChEMBL document CHEMBL1148772, “Inhibition of Mycobacterium tuberculosis, Mycobacterium bovis, and Mycobacterium avium by novel dideoxy nucleosides” (J Med Chem, 2007).
# Tests used:
# [1] = system: Mycobacterium tuberculosis; assay: Antimycobacterial activity against Mycobacterium tuberculosis H37Ra at 10 uM by microplate alamar blue assay; type: functional
# Mycobacterium avium [2] = assay: Antimycobacterial activity against Mycobacterium avium ATCC 25291 at 100 uM by microplate alamar blue assay; type: functional
# Mycobacterium avium [3] = assay: Antimycobacterial activity against Mycobacterium avium ATCC 25291 at 10 uM by microplate alamar blue assay; type: functional
# [4] = system: Mycobacterium tuberculosis; assay: Antimycobacterial activity against Mycobacterium tuberculosis H37Ra at 100 uM by microplate alamar blue assay; type: functional
# Mycobacterium avium [5] = assay: Antimycobacterial activity against Mycobacterium avium ATCC 25291 by microplate alamar blue assay; type: functional
# Bacillus subtilis = assay: Antibacterial activity against Bacillus subtilis ATCC 6633; type: functional
# [6] = system: Mycobacterium tuberculosis; assay: Antimycobacterial activity against Mycobacterium tuberculosis H37Ra by microplate alamar blue assay; type: functional
# Mycobacterium avium [7] = assay: Antimycobacterial activity against Mycobacterium avium ATCC 25291 at 50 uM by microplate alamar blue assay; type: functional
# [8] = Cytotoxicity against Vero cells by MTT assay; type: cell-based; conditions: African green monkey
# [9] = system: Mycobacterium tuberculosis; assay: Antimycobacterial activity against Mycobacterium tuberculosis H37Ra at 50 uM by microplate alamar blue assay; type: functional
# [10] = Cytotoxicity against human foreskin fibroblast cells by MTT assay; type: cell-based
# [11] = system: Mycobacterium tuberculosis; assay: Antimycobacterial activity against Mycobacterium tuberculosis H37Ra at 1 uM by microplate alamar blue assay; type: functional
# Streptococcus pyogenes = assay: Antibacterial activity against Streptococcus pyogenes ATCC 19615; type: functional
# Streptococcus pneumoniae = assay: Antibacterial activity against Streptococcus pneumoniae ATCC 49619; type: functional
# Mycobacterium avium [12] = assay: Antimycobacterial activity against Mycobacterium avium ATCC 25291 at 2 uM by microplate alamar blue assay; type: functional
SMILES,inhibition at 10 µM [1] [%],inhibition at 100 µM (Mycobacterium avium [2]) [%],inhibition at 100 µM [4] [%],MIC90 [6] [µg/mL],inhibition at 50 µM [9] [%],further results
Nc1nc(=O)n([C@H]2CC[C@@H](CO)O2)cc1Br,50,0,–,–,–,–
CCCCCCCCCC#Cc1cn([C@H]2CC[C@@H](CO)O2)c(=O)[nH]c1=O,100,100,100,1,100,inhibition at 10 µM (Mycobacterium avium [3]): 50%; MIC90 (Mycobacterium avium [5]): 10 µg/mL; MIC (Bacillus subtilis): 100 µg/mL; inhibition at 50 µM (Mycobacterium avium [7]): 100%; CC50 [8]: > 100 µg/mL; CC50 [10]: > 100 µg/mL; inhibition at 1 µM [11]: 80%
CCCCCCCCCCCC#Cc1cn([C@H]2CC[C@@H](CO)O2)c(=O)[nH]c1=O,50,100,100,10,100,inhibition at 10 µM (Mycobacterium avium [3]): 80%; MIC90 (Mycobacterium avium [5]): 10 µg/mL; inhibition at 50 µM (Mycobacterium avium [7]): 100%; CC50 [8]: > 100 µg/mL; CC50 [10]: > 100 µg/mL; inhibition at 1 µM [11]: 50%
O=c1[nH]c(=O)n([C@H]2CC[C@@H](CO)O2)cc1C#Cc1ccccc1,–,25,25,–,25,inhibition at 10 µM (Mycobacterium avium [3]): 25%; inhibition at 50 µM (Mycobacterium avium [7]): 25%
O=c1[nH]c(=O)n([C@H]2CC[C@@H](CO)O2)cc1Br,–,0,0,–,–,–
CCCC#Cc1cn([C@H]2CC[C@@H](CO)O2)c(=O)[nH]c1=O,–,0,50,–,–,–
Nc1ncnc2c1ncn2[C@H]1CC[C@@H](CO)O1,–,0,0,–,–,–
CC(=O)OC[C@@H]1CC[C@H](n2ccc(=O)[nH]c2=O)O1,–,0,0,–,–,–
O=c1[nH]c(=O)n([C@H]2CC[C@@H](CO)O2)cc1Cl,–,0,0,–,–,–
CCCc1ccc(C#Cc2cn([C@H]3C[C@H](F)[C@@H](CO)O3)c(=O)[nH]c2=O)cc1,50,25,100,50,100,–
CCCCCCCCCCCCC#Cc1cn(C2CC(F)C(CO)O2)c(=O)[nH]c1=O (stereo not drawn),100,90,100,1,100,MIC90 (Mycobacterium avium [5]): 100 µg/mL; CC50 [8]: > 100 µg/mL; CC50 [10]: > 100 µg/mL; inhibition at 1 µM [11]: 80%
CCSc1nc(N)nc2c1ncn2[C@H]1CC[C@@H](CO)O1,35,25,100,10,100,inhibition at 50 µM (Mycobacterium avium [7]): 25%
CC(=O)OC[C@@H]1CC[C@H](n2cc(Cl)c(=S)[nH]c2=O)O1,–,0,100,50,60,–
CCCCCC#Cc1cn([C@H]2C[C@H](F)[C@@H](CO)O2)c(=O)[nH]c1=O,–,0,50,–,–,–
CCCCCCCCC#Cc1cn([C@H]2C[C@H](F)[C@@H](CO)O2)c(=O)[nH]c1=O,25,50,100,10,100,CC50 [8]: > 100 µg/mL; CC50 [10]: > 100 µg/mL
CCCCCCCCCCC#Cc1cn([C@H]2C[C@H](F)[C@@H](CO)O2)c(=O)[nH]c1=O,50,90,100,10,100,MIC90 (Mycobacterium avium [5]): 100 µg/mL; inhibition at 50 µM (Mycobacterium avium [7]): 40%; CC50 [8]: > 100 µg/mL; CC50 [10]: > 100 µg/mL
N#Cc1cn(C2CCC(CO)O2)c2ncnc(N)c12 (stereo not drawn),–,0,50,–,40,–

SMILES,inhibition at 10 µM [1] [%],inhibition at 100 µM (Mycobacterium avium [2]) [%],inhibition at 100 µM [4] [%],MIC90 [6] [µg/mL],inhibition at 50 µM [9] [%],further results
CCCCCCCCCCCC#Cc1cn([C@H]2C[C@H](F)[C@@H](CO)O2)c(=O)[nH]c1=O,60,25,100,10,100,CC50 [8]: > 100 µg/mL; CC50 [10]: > 100 µg/mL
CCCCCCCCC#Cc1cn([C@H]2CC[C@@H](CO)O2)c(=O)[nH]c1=O,100,90,100,1,100,MIC (Streptococcus pyogenes): 100 µg/mL; inhibition at 10 µM (Mycobacterium avium [3]): 25%; MIC (Streptococcus pneumoniae): 100 µg/mL; MIC90 (Mycobacterium avium [5]): 100 µg/mL; MIC (Bacillus subtilis): 100 µg/mL; inhibition at 50 µM (Mycobacterium avium [7]): 25%; CC50 [8]: > 100 µg/mL; CC50 [10]: > 100 µg/mL; inhibition at 1 µM [11]: 50%
Nc1nc(=O)n([C@H]2CC[C@@H](CO)O2)cc1I,–,0,0,–,–,–
CC(=O)OC[C@@H]1CC[C@H](n2cc(Cl)c(=O)[nH]c2=O)O1,–,0,0,–,–,–
Cc1cn([C@H]2CC[C@@H](CO)O2)c(=O)nc1N,50,0,50,–,50,–
NC(=O)c1cn([C@H]2CC[C@@H](CO)O2)c2ncnc(N)c12,–,0,0,–,–,–
Nc1nc(F)c2ccn([C@H]3CC[C@@H](CO)O3)c2n1,25,100,50,–,40,inhibition at 10 µM (Mycobacterium avium [3]): 35%; MIC90 (Mycobacterium avium [5]): 10 µg/mL; inhibition at 50 µM (Mycobacterium avium [7]): 100%
O=c1[nH]c(=S)c(Cl)cn1[C@H]1CC[C@@H](CO)O1,–,0,100,50,50,–
CCCCCCCCCCCCC#Cc1cn([C@H]2CC[C@@H](CO)O2)c(=O)[nH]c1=O,50,100,100,10,100,MIC90 (Mycobacterium avium [5]): 50 µg/mL; inhibition at 50 µM (Mycobacterium avium [7]): 50%; CC50 [8]: > 100 µg/mL; CC50 [10]: > 100 µg/mL; inhibition at 1 µM [11]: 25%
Nc1nc(N)c2ncn([C@H]3CC[C@@H](CO)O3)c2n1,–,0,25,–,–,–
Nc1nc(O)c2ncn([C@H]3CC[C@@H](CO)O3)c2n1,–,0,0,–,–,–
CC[C@H]1OC(=O)[C@H](C)[C@@H](O[C@H]2C[C@@](C)(OC)[C@@H](O)[C@H](C)O2)[C@H](C)[C@@H](O[C@@H]2O[C@H](C)C[C@H](N(C)C)[C@H]2O)[C@](C)(OC)C[C@@H](C)C(=O)[C@H](C)[C@@H](O)[C@]1(C)O [CLARITHROMYCIN],–,–,–,–,–,MIC90 (Mycobacterium avium [5]): 2 µg/mL; inhibition at 2 µM (Mycobacterium avium [12]): 95%
Nc1ccn([C@@H]2CS[C@H](CO)O2)c(=O)n1 [LAMIVUDINE],–,0,0,–,–,–
COc1nc(N)nc2c1ncn2[C@H]1CC[C@@H](CO)O1 [METACAVIR],–,20,0,–,–,inhibition at 50 µM (Mycobacterium avium [7]): 20%
CO[C@H]1/C=C/O[C@@]2(C)Oc3c(C)c(O)c4c(O)c(c(/C=N/N5CCN(C)CC5)c(O)c4c3C2=O)NC(=O)/C(C)=C\C=C\[C@H](C)[C@H](O)[C@@H](C)[C@@H](O)[C@@H](C)[C@H](OC(C)=O)[C@@H]1C [RIFAMPIN],–,–,–,0.5,–,MIC90 (Mycobacterium avium [5]): 2 µg/mL; inhibition at 2 µM (Mycobacterium avium [12]): 90%
Nc1ccn([C@H]2CC[C@@H](CO)O2)c(=O)n1 [ZALCITABINE],–,0,0,–,–,–
